# What was measured:
# L1210 = assay: In vivo antitumor therapy against L1210; parameters: species or system BDF1 mice; settings: for Long-term Survivors: alive 30 days after tumor inoculation
# [1] = LD50 of DACH-Pt(II) compounds, intraperitoneal; format: in vivo; settings: i.p., CD1 albino mice
# [2] = In vivo renal and hematological toxicity of DACH-Pt(II) compounds; parameters: species or system CD1 albino mice; WBC d.5: unit not given here; settings: single i.p. LD50 dose; for Body Weight d.5 (% of day 0) / WBC d.5: day 5; for WBC d.5: mean ± S.D.
# Experimental: CD1 albino mice were administered a single intraperitoneal injection of the LD50 dose of each compound using 5 mice in each group. Five days later each mouse was bled under anesthesia from the axillary vessel. Blood urea nitrogen (BUN) and leucopenia were assessed for each sample.
# ^a CD1 Albino mice were administered a single i.p. injection of
# the LD50 dose of each compound (5 mice/cmpd) and bled under
# anesthesia from the axillary vessel 5 days later for blood urea nitrogen
# (BUN) measurement and assessment of leucopenia. Results as presented as […]
# L1210/cisplatin = assay: In vivo antitumor efficacy, L1210/cisplatin; parameters: species or system BDF1 mice; settings: for % T/C (mean survival time treated/control × 100): mice inoculated with L1210 cells (Table 6); for % T/C: days 1, 5, 9
# Experimental: (§1) BDF1 mice were inoculated intraperitoneally with 10^5 L121O cells, 0.5 ml of 10% tumor brei or 10^6 M5076 cells using 5 animals in each group. Drug was administered […] on days 1, 5 and 9, except that the group infected with M5076 cells was also injected on day 13. % T/C represents mean survival time treated/mean survival time of the control times 100.
# ^a BDF1 mice were inoculated i.p. with 10^5 L1210 cells. Mic
# received 3 i.p. drug injections days 1, 5, and 9.
# (§2) ^d % T/C = (Mean Survival Time treated/Mean Survival Time control)
# (§3) ^e LTS animals alive 60 days after inoculation of L1210/0 and B16 and […]
# B16 melanoma = assay: In vivo antitumor efficacy, B16 melanoma; parameters: species or system BDF1 mice; settings: for % T/C: days 1, 5, 9
# Experimental: as §1, §2, §3
# M5076 = assay: In vivo antitumor efficacy, M5076; parameters: species or system BDF1 mice; settings: for % T/C: days 1, 5, 9, 13
# Experimental: as §1
# ^c BDF1 mice were inoculated i.p. with 10^6 M5076 cells. Mic
# received 4 i.p. drug injections on days 1, 5, 9 and 13.
# as §2
# ^e LTS animals alive 60 days after inoculation of L1210/0 and B16 and
# 90 days after inoculation B5076.
# [3] = test system: wild-type L1210 leukemic cells; assay: In vitro cytotoxicity, growth inhibition of wild-type L1210 leukemic cells; format: cell-based, murine; settings: 72 hours incubation
# Experimental: Wild-type L1210 leukemic cells were grown as a suspension culture in McCoy's 5A medium supplemented with 10% horse serum, glutamine, streptomycin and penicillin at 37° C., 95% relative humidity and 5% CO2. Four ml of cell suspension (10^5 cells/ml) were added to culture tubes and the appropriate amount of drug was added (to yield 0.01, 0.1, 1 or 10 μg/ml final concentration) to the culture tubes. After 72 hours of incubation, the cell concentration in control and experimental cultures were determined with the aid of the Coulter counter model ZBf and the percent of growth inhibition calculated.
# [4] = optimal dose 12.5 mg/kg i.p., days 1,5,9
# [5] = optimal dose 50 mg/kg i.p., day 1
# [6] = optimal dose 25 mg/kg i.p., days 1,5,9
# [7] = optimal dose 6.25 mg/kg i.p., days 1,5,9
compound,measurement,setting,value
"1,1-Cyclobutanedicarboxylato(trans-R,R-DACH)Pt(II).1 1/2H2 O [Compound 11]",Long-term Survivors,"L1210; 6.25 mg/kg i.p., days 1-9",3/6
same,% T/C,"L1210; optimal dose 6.25 mg/kg i.p., days 1-9",398%
same,% T/C,L1210; [4],140%
same,% T/C,L1210; [5],147%
same,LD50,[1],280 mg/kg
same,Survivors on d.5,[2],5/5
same,Body Weight d.5 (% of day 0),[2],121 % of day 0
same,WBC d.5,[2],3.44 ± 1.55
same,% T/C (mean survival time treated/control × 100),L1210/cisplatin,118%
same,% T/C,L1210/cisplatin; opt. dose 150 mg/kg i.p.,118%
same,% T/C (mean survival time treated/control x 100),B16 melanoma; mice inoculated with B16 cells (Table 6),104%
same,% T/C,B16 melanoma; opt. dose 50 mg/kg i.p.,104%
same,long term survivor,M5076; M5076 inoculation (Table 6),one
same,% T/C (treated/control mean survival time),M5076; mice inoculated with M5076 cells (Table 6),220%
same,% T/C,M5076; opt. dose 50 mg/kg i.p.,220%
same,LTS,"M5076; opt. dose 50 mg/kg i.p., alive 90 days after inoculation",1/5
"CCN(CC(=O)[O-])CC(=O)[O-].N[C@@H]1CCCC[C@H]1N.O.[Pt+2] (stereo in doubt) [Compound 1, N-ethyliminodiacetato(trans-R,R-DACH)Pt(II).H2 O]",ID50,[3],0.73 µg/mL
same,Long-term Survivors,"L1210; 3.15 mg/kg i.p., days 1-9",4/6
same,Long-term Survivors,"L1210; 12.5 mg/kg i.p., days 1,5,9",1/6
same,% T/C,"L1210; optimal dose 3.15 mg/kg i.p., days 1-9",434%
same,% T/C,L1210; [4],324%
same,% T/C,L1210; [5],125%
same,LD50,[1],58 mg/kg
same,Survivors on d.5,[2],5/5
same,Body Weight d.5 (% of day 0),[2],105 % of day 0
same,WBC d.5,[2],2.3 ± 0.93
same,% T/C (mean survival time treated/control × 100),L1210/cisplatin,324%
same,% T/C,L1210/cisplatin; opt. dose 12.5 mg/kg i.p.,324%
"N[C@@H]1CCCC[C@H]1N.O.O.O=C([O-])CN(O)CC(=O)[O-].[Pt+2] (stereo in doubt) [Compound 9, N-hydroxyliminodiacetato(trans-R,R-DACH)Pt(II).2H2 O]",ID50,[3],0.76 µg/mL
same,% T/C,L1210; [6],265%
same,% T/C,L1210; [5],156%
"N[C@@H]1CCCC[C@H]1N.O.O=C([O-])C1(C(=O)[O-])CC1.[Pt+2] (stereo in doubt) [Compound 14, 1,l-Cyclopropanedicarboxylato(trans-R,R-DACH)Pt(II).H2 O]",ID50,[3],0.66 µg/mL
"CN(C)CC(=O)[O-].CN(C)CC(=O)[O-].N[C@@H]1CCCC[C@H]1N.O.O.[Pt+2] (stereo in doubt) [Compound 16, Cis-bis-N,N-dimethylglycinato(trans-R,R-DACH)Pt(II).2H2 O]",ID50,[3],3.5 µg/mL
"N.N.O=C([O-])C1(C(=O)[O-])CCC1.[Pt+2] [Carboplatin, reference compound]",LD50,[1],105 mg/kg
same,Survivors on d.5,[2],5/5
same,Body Weight d.5 (% of day 0),[2],95 % of day 0
same,% T/C,L1210/cisplatin; opt. dose 90 mg/kg i.p.,121%
same,% T/C,M5076; opt. dose 40 mg/kg i.p.,150%
CCN1CC(=O)[O][Pt]2([NH]C3CCCCC3[NH]2)[O]C(=O)C1 (stereo not drawn) [Cis-EIDA],LD50,[1],140 mg/kg
same,Survivors on d.5,[2],3/5
same,Body Weight d.5 (% of day 0),[2],77 % of day 0
same,WBC d.5,[2],3.25 ± 1.01
same,% T/C,L1210/cisplatin; opt. dose 75 mg/kg i.p.,262%
"N.N.[Cl][Pt][Cl] [Cisplatin, reference compound]",% T/C,L1210/cisplatin; opt. dose 5 mg/kg i.p.,94%
same,% T/C,B16 melanoma; opt. dose 3 mg/kg i.p.,139%
same,% T/C,M5076; opt. dose 3 mg/kg i.p.,200%
"CCCN(CC(=O)[O-])CC(=O)[O-].N[C@@H]1CCCC[C@H]1N.O.O.[Pt+2] [Compound 2, N-propyliminodiacetato(trans-R,R-DACH)Pt(II).2H2 O]",ID50,[3],0.75 µg/mL
same,% T/C,"L1210; optimal dose 56 mg/kg i.p., day 1",129%
"CCCCN(CC(=O)[O-])CC(=O)[O-].N[C@@H]1CCCC[C@H]1N.O.O.[Pt+2] [Compound 3, N-butyliminodiacetato(trans-R,R-DACH)Pt(II).2H2 O]",ID50,[3],0.74 µg/mL
same,Long-term Survivors,"L1210; 12.5 mg/kg i.p., days 1,5,9",2/6
same,% T/C,"L1210; optimal dose 12.5 mg/kg i.p., day 1",147%
same,% T/C,L1210; [4],318%
"CCCCCN(CC(=O)[O-])CC(=O)[O-].N[C@@H]1CCCC[C@H]1N.O.[Pt+2] [Compound 4, N-amyliminodiacetato(trans-R,R-DACH)Pt(II).H2 O]",ID50,[3],3.00 µg/mL
same,Long-term Survivors,"L1210; 25 mg/kg i.p., days 1,5,9",2/6
same,% T/C,L1210; [6],227%
same,% T/C,L1210; [5],158%
"CC(C)CCN(CC(=O)[O-])CC(=O)[O-].N[C@@H]1CCCC[C@H]1N.[Pt+2] [Compound 6, N-isoamyliminodiacetato(trans-R,R-DACH)Pt(II)]",% T/C,L1210; [4],150%
same,% T/C,L1210; [5],145%
"CCC(C)N(CC(=O)[O-])CC(=O)[O-].N[C@@H]1CCCC[C@H]1N.O.O.[Pt+2] (stereo not drawn) [Compound 7, N-sec-butyliminodiacetato(trans-R,R-DACH)Pt(II).2H2 O]",ID50,[3],0.65 µg/mL
same,Long-term Survivors,"L1210; 6.25 mg/kg i.p., days 1,5,9",2/6
same,% T/C,L1210; [7],282%
"CC(C)(C)N(CC(=O)[O-])CC(=O)[O-].N[C@@H]1CCCC[C@H]1N.O.O.O.[Pt+2] [Compound 8, N-ter-butyliminodiacetato(trans-R,R-DACH)Pt(II).3H2 O]",Long-term Survivors,"L1210; 6.25 mg/kg i.p., days 1,5,9",1/6
same,% T/C,L1210; [7],271%
"CC(=CC(=O)[O-])C(=O)[O-].NC1CCCCC1N.O.[Pt+2] [Compound 10, Citraconato(trans-R,R-DACH)Pt(II).1H2 O]",ID50,[3],5.00 µg/mL
same,% T/C,L1210; [6],200%
"CCN1CC(=O)[O][Pt]2([NH]C3CCCCC3[NH]2)[O]C(=O)C1 (stereo not shown) [S,S-EIDA]",LD50,[1],95 mg/kg
same,Survivors on d.5,[2],5/5
same,Body Weight d.5 (% of day 0),[2],100 % of day 0
same,WBC d.5,[2],2.63 ± 0.96
same,% T/C,L1210/cisplatin; opt. dose 25 mg/kg i.p.,344%
"Cis-bis-galacturonato(trans-R,R-DACH)Pt(II).2H2 O [Compound 15]",ID50,[3],0.90 µg/mL
same,% T/C,L1210; [4],238%
"N-isopropyliminodiacetato(trans-R,R-DACH)Pt(II).2H2 O [Compound 5]",ID50,[3],0.85 µg/mL
same,Long-term Survivors,"L1210; 12.5 mg/kg i.p., days 1,5,9",1/6
same,% T/C,L1210; [4],324%
same,% T/C,L1210; [5],155%

# Source: patent publication US5132323A, “1,2-diaminocyclohexane-platinum complexes with antitumor activity” (Board of Regents, The University of Texas System, priority 1990, dated 1992)
